Assay results taken from patent US9028845B2, “Chimeric immunomodulatory compounds and methods of using the same-IV” (Dynavax Technologies Corporation, priority 2001, dated 2015).
Strand notation (5' to 3'): a small letter for the sugar, then the base; units joined by * are phosphorothioate-linked, units joined directly phosphodiester-linked; [ ] holds rarer units or linkages, { } end groups; capitals alone tell only the bases. d = 2'-deoxy (DNA)

Legend:
human PBMCs = assay: Human PBMC cytokine response assay (IFN-γ and IFN-α in cell-free medium by ELISA), with or without cPLGA; format: cell-based;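 on IFN-α (pg/ml) mean: 20 µg/mL compound for 24 hours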;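 on IFN-γ (pg/ml) mean: 20 µg/mL compound for 24 hours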
mice = assay: Serum cytokines (IL-12 p40, IL-6, TNF-α) after subcutaneous injection in mice; format: in vivo; settings: 20 ug subcutaneous, blood 2 hours later
Method in brief: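 Blood was taken 2 h after subcutaneous injection. LPS positive-control mice were dosed intraperitoneally and bled at 1.5 h, at the peak of TNF-α. Sera were stored at −80° C and TNF-α, IL-6 and IL-12 were measured by immunoassay kits or antibody pairs in duplicate.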

[1] = Table 24, mean of donors 28234-28237
[2] = Table 25, mean of donors 28250-28253
[3] = donor 28066, 20 ug/ml, 24 h, + PLGA = premixed with 100 μg/ml cPLGA
[4] = donor 28067, 20 ug/ml, 24 h, + PLGA = premixed with 100 μg/ml cPLGA
[5] = donor 28068, 20 ug/ml, 24 h, + PLGA = premixed with 100 μg/ml cPLGA
[6] = mean of Donors 1-2, 20 μg/ml, 24 h
[7] = mean of Donors 3-4, 20 μg/ml, 24 h
[8] = mean of Donors 5-6, 20 μg/ml (mixtures: 20 μg/ml total), 24 h
[9] = mean of Donors 7-8, 20 μg/ml, 24 h
[10] = mean of Donors 9-12, 20 μg/ml, 24 h
[11] = mean of donors 110, 112, 119, 120, Table 14
[12] = mean of donors 28057-28060, Table 16
[13] = mean of donors 28065-28068, 20 ug/ml, 24 h, + PLGA = premixed with 100 μg/ml cPLGA
[14] = mean of donors 28185-28188, Table 15
[15] = mean of donors 28218-28221, 20 μg/ml, 24 h

Substance “5′-TGACTGTGAACCTTAGAGATGA-3′ (SEQ ID NO: 3) (dT*dG*dA*dC*dT*dG*dT*dG*dA*dA*dC*dC*dT*dT*dA*dG*dA*dG*dA*dT*dG*dA) [Compound P-7, negative control, reference compound]” has an IFN-α (human PBMCs; Table 24, donor 28234) of 62 pg/mL, an IFN-γ (human PBMCs; Table 24, donor 28234) of 13 pg/mL and an IFN-α (human PBMCs; Table 24, donor 28235) of 16 pg/mL. For the same substance, the IFN-γ (human PBMCs; Table 24, donor 28235) was 4 pg/mL, the IFN-α (human PBMCs; Table 24, donor 28236) was 16 pg/mL and the IFN-γ (human PBMCs; Table 24, donor 28236) was 7 pg/mL. The IFN-α (human PBMCs; Table 24, donor 28237) was 16 pg/mL, the IFN-γ (human PBMCs; Table 24, donor 28237) was 4 pg/mL and the IFN-α mean (human PBMCs; [1]) was 28 pg/mL. It also gave an IFN-γ mean (human PBMCs; [1]) of 7 pg/mL, an IFN-a (human PBMCs; Table 25, donor 28250) of 16 pg/mL and an IFN-g (human PBMCs; Table 25, donor 28250, polynucleotides/spacers at amounts equivalent to the CIC, spacers alone 9 uM) of 104 pg/mL. For the same substance, the IFN-a (human PBMCs; Table 25, donor 28251) was 16 pg/mL, the IFN-g (human PBMCs; Table 25, donor 28251) was 1 pg/mL and the IFN-a (human PBMCs; Table 25, donor 28252) was 16 pg/mL. The IFN-g (human PBMCs; Table 25, donor 28252) was 39 pg/mL, the IFN-a (human PBMCs; Table 25, donor 28253) was 16 pg/mL and the IFN-g (human PBMCs; Table 25, donor 28253) was 1 pg/mL. The IFN-a mean (human PBMCs; [2]) was 16 pg/mL, the IFN-g mean (human PBMCs; [2]) was 36 pg/mL and the “IFN-α” value (human PBMCs; donor 110, Table 14) was 2 pg/mL. For the same substance, the “IFN-γ” value (human PBMCs; donor 110, Table 14) was 124 pg/mL, the “IFN-α” value (human PBMCs; donor 112, Table 14) was 32 pg/mL and the “IFN-γ” value (human PBMCs; donor 112, Table 14) was 24 pg/mL. For the same substance, the “IFN-α” value (human PBMCs; donor 119, Table 14) was 474 pg/mL, the “IFN-γ” value (human PBMCs; donor 119, Table 14) was 16 pg/mL and the “IFN-α” value (human PBMCs; donor 120, Table 14) was 2 pg/mL. The “IFN-γ” value (human PBMCs; donor 120, Table 14) was 40 pg/mL, the “IFN-α” value (human PBMCs; donor 28057, Table 16) was 0 pg/mL and the “IFN-γ” value (human PBMCs; donor 28057, Table 16) was 1 pg/mL. The “IFN-α” value (human PBMCs; donor 28058, Table 16) was 0 pg/mL, the “IFN-γ” value (human PBMCs; donor 28058, Table 16) was 2 pg/mL and the “IFN-α” value (human PBMCs; donor 28059, Table 16) was 0 pg/mL. The “IFN-γ” value (human PBMCs; donor 28059, Table 16) was 3 pg/mL, the “IFN-α” value (human PBMCs; donor 28060, Table 16) was 0 pg/mL and the “IFN-γ” value (human PBMCs; donor 28060, Table 16) was 4 pg/mL. For the same substance, the “IFN-γ (pg/ml) 28065” value (human PBMCs; donor 28065 (high background), 20 ug/ml, 24 h, + PLGA = premixed with 100 μg/ml cPLGA, 1000 = outside assay limits) was 397 pg/mL, the “IFN-α (pg/ml) 28065” value (human PBMCs; donor 28065, 20 ug/ml, 24 h, + PLGA = premixed with 100 μg/ml cPLGA) was 0 pg/mL and the “IFN-α (pg/ml) 28066” value (human PBMCs; [3]) was 8 pg/mL. The “IFN-γ (pg/ml) 28066” value (human PBMCs; [3]) was 1 pg/mL, the “IFN-α (pg/ml) 28067” value (human PBMCs; [4]) was 0 pg/mL and the “IFN-γ (pg/ml) 28067” value (human PBMCs; [4]) was 8 pg/mL. For the same substance, the “IFN-α (pg/ml) 28068” value (human PBMCs; [5]) was 3 pg/mL, the “IFN-γ (pg/ml) 28068” value (human PBMCs; [5]) was 15 pg/mL and the “IFN-a” value (human PBMCs; donor 28185, Table 15) was 4 pg/mL. The “IFN-g” value (human PBMCs; donor 28185, Table 15) was 0 pg/mL, the “IFN-a” value (human PBMCs; donor 28186, Table 15) was 25 pg/mL and the “IFN-g” value (human PBMCs; donor 28186, Table 15) was 4 pg/mL. The “IFN-a” value (human PBMCs; donor 28187, Table 15) was 5 pg/mL, the “IFN-g” value (human PBMCs; donor 28187, Table 15) was 19 pg/mL and the “IFN-a” value (human PBMCs; donor 28188, Table 15) was 31 pg/mL. For the same substance, the “IFN-g” value (human PBMCs; donor 28188, Table 15) was 2 pg/mL, the “IFN-a (pg/ml) 28218” value (human PBMCs; donor 28218, 20 μg/ml, 24 h) was 32 pg/mL and the “IFN-g (pg/ml) 28218” value (human PBMCs; donor 28218, 20 μg/ml, 24 h) was 5 pg/mL. The “IFN-a (pg/ml) 28219” value (human PBMCs; donor 28219, 20 μg/ml, 24 h) was 32 pg/mL, the “IFN-g (pg/ml) 28219” value (human PBMCs; donor 28219, 20 μg/ml, 24 h) was 5 pg/mL and the “IFN-a (pg/ml) 28220” value (human PBMCs; donor 28220, 20 μg/ml, 24 h) was 32 pg/mL. For the same substance, the “IFN-g (pg/ml) 28220” value (human PBMCs; donor 28220, 20 μg/ml, 24 h) was 5 pg/mL, the “IFN-a (pg/ml) 28221” value (human PBMCs; donor 28221, 20 μg/ml, 24 h) was 32 pg/mL and the “IFN-g (pg/ml) 28221” value (human PBMCs; donor 28221, 20 μg/ml, 24 h) was 5 pg/mL. The “IFN-α (pg/ml) mean” value (human PBMCs; [6]) was 0 pg/mL, the “IFN-γ (pg/ml) mean” value (human PBMCs; [6]) was 231 pg/mL and the “IFN-α (pg/ml) mean” value (human PBMCs; [7]) was 15 pg/mL. The “IFN-γ (pg/ml) mean” value (human PBMCs; [7]) was 5 pg/mL, the “IFN-α (pg/ml) mean” value (human PBMCs; [8]) was 57 pg/mL and the “IFN-γ (pg/ml) mean” value (human PBMCs; [8]) was 37 pg/mL. For the same substance, the “IFN-α (pg/ml) mean” value (human PBMCs; [9]) was 0 pg/mL, the “IFN-γ (pg/ml) mean” value (human PBMCs; [9]) was 2 pg/mL and the IFN-α mean (human PBMCs; [10]) was 2. For the same substance, the IFN-γ mean (human PBMCs; [10]) was 3, the “IFN-α (pg/ml) mean” value (human PBMCs; [11]) was 128 pg/mL and the “IFN-γ (pg/ml) mean” value (human PBMCs; [11]) was 51 pg/mL. The “IFN-α (pg/ml) mean” value (human PBMCs; [12]) was 0 pg/mL, the “IFN-γ (pg/ml) mean” value (human PBMCs; [12]) was 2 pg/mL and the “IFN-α (pg/ml) mean” value (human PBMCs; [13]) was 3 pg/mL. The “IFN-γ (pg/ml) mean” value (human PBMCs; [13]) was 105 pg/mL, the “IFN-a (pg/ml) mean” value (human PBMCs; [14]) was 16 pg/mL and the “IFN-g (pg/ml) mean” value (human PBMCs; [14]) was 6 pg/mL. The “IFN-a (pg/ml) mean” value (human PBMCs; [15]) was 32 pg/mL, the “IFN-g (pg/ml) mean” value (human PBMCs; [15]) was 5 pg/mL and the “IFN-a (pg/ml) ×2” value (human PBMCs; mean ×2, Table 15) was 32 pg/mL. The “IFN-g (pg/ml) ×4” value (human PBMCs; mean ×4, Table 15) was 25 pg/mL, the “immunomodulatory activity (IFN-γ / IFN-α secretion), in words” value (human PBMCs; used alone (no cPLGA)) was “no activity” and the “induction of serum IL-12 p40, IL-6 and TNF-α, in words” value (mice) was “inactive”.
